Source: PMC3955700 (Bioorganic & medicinal chemistry letters, 2013)

Tested on: brain / choroid plexus uptake
Experiment: PET imaging in cynomolgus monkey
Format: in vivo

## Cl.O=C(Cc1ccc(OC2CCNCC2)cc1OCCF)N1CCC(N2C(=O)CCc3ccccc32)CC1 [Compound 1, 1-(1-(2-(2-(2-fluoroethoxy)-4-(piperidin-4-yloxy)phenyl)acetyl)piperidin-4-yl)-3,4-dihydroquinolin-2(1H)-one]
5 mg/kg of 1 given 30 min prior to [18F]1
  effect of blocking on [18F]1 uptake: increase of overall brain activity, primarily in the region of the choroid plexus
5 mg/kg of 1 given 45 min after [18F]1
  effect of chase on [18F]1 choroid plexus uptake: uptake within the choroid plexus was completely removed
